Drawing on patent US20240132521A1, “COMPOUNDS AND METHODS FOR MODULATING HER2” (Iambic Therapeutics, Inc., priority 2022, published 2024), this text covers GI50 and IC50 for 16 compounds.

The target in one test is BaF3_EGFRWT cells (Homo sapiens, UniProt P00533). The experiment in a line: Cell growth inhibition assay (CellTiterGlo), BaF3_EGFRWT. The class given is cell-based. The note with it: 3-day treatment, CellTiterGlo, read-out: Cell growth inhibition activity, EGFR WT. For orientation: Cellular ATP, detected with luciferase, serves as a proxy for viable cell number.
BaF3_EGFRWT cells, sequence (P00533 whole entry, change not shown): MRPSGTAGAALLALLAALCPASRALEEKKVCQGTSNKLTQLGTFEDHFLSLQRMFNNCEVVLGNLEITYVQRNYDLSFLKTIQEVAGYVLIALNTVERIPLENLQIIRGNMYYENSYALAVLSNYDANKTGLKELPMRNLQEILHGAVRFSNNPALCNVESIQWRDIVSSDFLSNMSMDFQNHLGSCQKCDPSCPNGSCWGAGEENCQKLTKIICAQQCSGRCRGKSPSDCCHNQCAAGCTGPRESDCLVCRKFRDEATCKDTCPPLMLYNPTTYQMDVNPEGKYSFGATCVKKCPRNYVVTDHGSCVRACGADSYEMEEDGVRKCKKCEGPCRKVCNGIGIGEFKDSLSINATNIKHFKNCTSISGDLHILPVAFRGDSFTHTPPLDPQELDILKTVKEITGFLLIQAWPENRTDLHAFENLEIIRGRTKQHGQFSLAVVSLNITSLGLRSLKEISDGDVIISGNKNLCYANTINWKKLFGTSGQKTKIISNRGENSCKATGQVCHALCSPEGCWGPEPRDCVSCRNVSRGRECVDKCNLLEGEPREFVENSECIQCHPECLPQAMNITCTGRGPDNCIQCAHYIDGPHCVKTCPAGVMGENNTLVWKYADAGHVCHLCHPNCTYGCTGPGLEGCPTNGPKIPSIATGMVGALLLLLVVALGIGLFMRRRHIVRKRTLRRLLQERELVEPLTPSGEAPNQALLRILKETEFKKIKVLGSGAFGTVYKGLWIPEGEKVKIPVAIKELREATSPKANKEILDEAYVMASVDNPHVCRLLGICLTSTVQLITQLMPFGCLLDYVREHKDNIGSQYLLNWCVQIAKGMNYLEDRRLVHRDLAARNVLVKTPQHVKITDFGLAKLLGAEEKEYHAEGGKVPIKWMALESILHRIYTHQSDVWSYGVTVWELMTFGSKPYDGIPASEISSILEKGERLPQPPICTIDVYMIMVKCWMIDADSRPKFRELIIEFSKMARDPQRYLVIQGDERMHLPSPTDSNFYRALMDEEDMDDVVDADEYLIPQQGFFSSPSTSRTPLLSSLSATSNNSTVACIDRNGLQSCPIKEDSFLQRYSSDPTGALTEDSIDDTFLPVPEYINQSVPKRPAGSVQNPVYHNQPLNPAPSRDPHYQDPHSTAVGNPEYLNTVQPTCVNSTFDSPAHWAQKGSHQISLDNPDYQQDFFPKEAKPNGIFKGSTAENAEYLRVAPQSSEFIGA
The next test has as its target BaF3_HER2YVMA cells (Homo sapiens, UniProt P04626, DUP772-775, cells depend on it). As to the kind of experiment: Cell growth inhibition assay (CellTiterGlo), BaF3_HER2YVMA. It counts as cell-based. The note with it: 3-day treatment, CellTiterGlo, read-out: Cell growth inhibition activity, HER2 - YVMA.
Test [1] deals with T1, ERBB2-A775_G776insYVMA (ERBB2YVMA) (Homo sapiens, UniProt P04626, INS775YVMA).
T1 construct: purchased SignalChem E27-13BG
T1 sequence (P04626 with tags, fused parts or gaps INS775YVMA limits assumed): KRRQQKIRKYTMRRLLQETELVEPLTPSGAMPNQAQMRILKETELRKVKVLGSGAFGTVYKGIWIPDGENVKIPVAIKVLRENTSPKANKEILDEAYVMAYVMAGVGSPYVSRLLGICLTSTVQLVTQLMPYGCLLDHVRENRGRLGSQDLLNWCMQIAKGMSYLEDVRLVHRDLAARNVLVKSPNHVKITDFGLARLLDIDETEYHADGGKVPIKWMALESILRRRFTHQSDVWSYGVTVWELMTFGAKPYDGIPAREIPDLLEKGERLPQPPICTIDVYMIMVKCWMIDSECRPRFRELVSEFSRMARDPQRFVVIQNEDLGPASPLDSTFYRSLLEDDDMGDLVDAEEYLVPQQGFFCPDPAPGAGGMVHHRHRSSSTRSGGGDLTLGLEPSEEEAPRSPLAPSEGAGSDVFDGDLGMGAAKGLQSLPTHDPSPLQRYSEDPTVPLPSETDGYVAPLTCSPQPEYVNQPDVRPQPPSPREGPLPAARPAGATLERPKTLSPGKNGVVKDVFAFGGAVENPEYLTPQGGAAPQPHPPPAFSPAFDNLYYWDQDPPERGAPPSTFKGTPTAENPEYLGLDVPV
The experiment in a line: HotSpot radiometric kinase activity assay, ERBB2YVMA. The note with it: biochemical activity, 20 nM ERBB2YVMA, 10 μM 33P-ATP, 2 hours, read-out: HER2 - YVMA IC50. How it is done:
The purpose of the wtERBB2, ERBB2-A775_G776insYVMA (ERBB2YVMA), wtEGFR biochemical assay was to evaluate the inhibition (% inhibition and IC50 values) of the small molecule inhibitors by using the “HotSpot” radiometric kinase activity assay. HotSpot assays monitor the production of kinase substrate by the radioactive gamma phosphate of adenosine triphosphate (33P-ATP) during biochemical reactions. HotSpot assays was performed in steps upon completion of the kinase reaction: deposition of a reaction mixture aliquot onto P81 ion exchange paper, extensive washing of the aforementioned P81 paper using phosphoric acid to remove unbound radiolabeled 33P-ATP from the P81 paper, and finally visualization and quantification of the dried P81 paper utilizing a phosphoimager. […] Typical reaction solutions (10 μL, final reaction volume) contained the following buffer conditions: 20 mM Hepes (pH 7.5), 10 mM MgCl2, 1 mM EGTA, 0.01% Brij35, 0.02 mg/mL BSA, 0.1 mM Na3VO4, 2 mM DTT, 1% DMSO. The assay was primed by preparing a fresh 0.2 mg/mL solution of pEY (Sigma Cat: P7244) substrate in the reaction buffer and supplementing that solution with […] of MnCl2 as substrate cofactor (Sigma Cat: M9522). The kinase of interest was then added to the solution at the appropriate concentration (30 nM wtERBB2 from, or 20 nM ERBB2YVMA, or 4 nM wtEGFR) and gently mixed prior to delivery of compound in 100% DMSO by acoustic dispensing (Beckman Echo550). Compound, Kinase, and substrate were allowed to incubate for 20 min at room temperature prior to the initiation of the reaction by addition of 33P-ATP (PerkinElmer Cat: NEG602, final conc 10 μM). […] IC50 determinations were made from a plot of kinase activity as a function of inhibitor concentration fit to the 4-parameter IC50 equation with the enzyme concentration held constant using GraphPad Prism (San Diego).

The target in the next test is BaF3_HER2WT cells (Homo sapiens, UniProt P04626). As to the kind of experiment: Cell growth inhibition assay (CellTiterGlo), BaF3_HER2WT. The class given is cell-based. The conditions noted are these: 3-day treatment, CellTiterGlo, read-out: Cell growth inhibition activity, HER2 WT.
BaF3_HER2WT cells, sequence (P04626 whole entry, change not shown): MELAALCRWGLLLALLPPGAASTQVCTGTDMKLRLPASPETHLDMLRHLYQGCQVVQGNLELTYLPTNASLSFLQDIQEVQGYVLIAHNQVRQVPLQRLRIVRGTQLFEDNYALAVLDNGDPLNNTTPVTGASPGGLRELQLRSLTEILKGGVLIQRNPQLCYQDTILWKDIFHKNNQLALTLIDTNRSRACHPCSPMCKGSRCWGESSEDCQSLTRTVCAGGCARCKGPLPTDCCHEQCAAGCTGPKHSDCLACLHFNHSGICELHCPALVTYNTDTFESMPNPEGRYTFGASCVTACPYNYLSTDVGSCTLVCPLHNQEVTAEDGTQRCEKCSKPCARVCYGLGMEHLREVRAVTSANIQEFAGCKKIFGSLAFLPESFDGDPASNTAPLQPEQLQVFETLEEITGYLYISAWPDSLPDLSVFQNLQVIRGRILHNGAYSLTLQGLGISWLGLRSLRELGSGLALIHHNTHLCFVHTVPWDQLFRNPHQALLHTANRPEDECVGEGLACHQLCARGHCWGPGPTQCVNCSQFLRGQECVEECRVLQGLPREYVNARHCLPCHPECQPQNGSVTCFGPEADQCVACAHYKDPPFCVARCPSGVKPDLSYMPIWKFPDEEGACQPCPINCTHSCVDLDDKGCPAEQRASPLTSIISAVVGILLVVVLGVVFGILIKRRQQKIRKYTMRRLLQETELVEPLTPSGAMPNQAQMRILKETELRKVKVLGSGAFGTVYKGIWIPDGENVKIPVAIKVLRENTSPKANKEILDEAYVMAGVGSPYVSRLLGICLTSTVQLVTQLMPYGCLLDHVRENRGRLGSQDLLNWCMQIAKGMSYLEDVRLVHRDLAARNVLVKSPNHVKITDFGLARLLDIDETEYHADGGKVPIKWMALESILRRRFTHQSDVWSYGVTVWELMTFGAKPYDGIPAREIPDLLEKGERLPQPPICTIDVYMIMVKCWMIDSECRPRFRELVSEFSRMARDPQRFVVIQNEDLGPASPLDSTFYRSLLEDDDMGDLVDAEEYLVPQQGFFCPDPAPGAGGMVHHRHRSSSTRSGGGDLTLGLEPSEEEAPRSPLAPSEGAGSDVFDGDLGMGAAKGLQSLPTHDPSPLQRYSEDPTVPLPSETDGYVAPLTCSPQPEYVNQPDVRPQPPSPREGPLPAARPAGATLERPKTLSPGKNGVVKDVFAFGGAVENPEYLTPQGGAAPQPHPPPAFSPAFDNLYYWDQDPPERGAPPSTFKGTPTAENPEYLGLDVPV

BaF3_HER2YVMA cells, sequence (P04626 with tags, fused parts or gaps DUP772-775): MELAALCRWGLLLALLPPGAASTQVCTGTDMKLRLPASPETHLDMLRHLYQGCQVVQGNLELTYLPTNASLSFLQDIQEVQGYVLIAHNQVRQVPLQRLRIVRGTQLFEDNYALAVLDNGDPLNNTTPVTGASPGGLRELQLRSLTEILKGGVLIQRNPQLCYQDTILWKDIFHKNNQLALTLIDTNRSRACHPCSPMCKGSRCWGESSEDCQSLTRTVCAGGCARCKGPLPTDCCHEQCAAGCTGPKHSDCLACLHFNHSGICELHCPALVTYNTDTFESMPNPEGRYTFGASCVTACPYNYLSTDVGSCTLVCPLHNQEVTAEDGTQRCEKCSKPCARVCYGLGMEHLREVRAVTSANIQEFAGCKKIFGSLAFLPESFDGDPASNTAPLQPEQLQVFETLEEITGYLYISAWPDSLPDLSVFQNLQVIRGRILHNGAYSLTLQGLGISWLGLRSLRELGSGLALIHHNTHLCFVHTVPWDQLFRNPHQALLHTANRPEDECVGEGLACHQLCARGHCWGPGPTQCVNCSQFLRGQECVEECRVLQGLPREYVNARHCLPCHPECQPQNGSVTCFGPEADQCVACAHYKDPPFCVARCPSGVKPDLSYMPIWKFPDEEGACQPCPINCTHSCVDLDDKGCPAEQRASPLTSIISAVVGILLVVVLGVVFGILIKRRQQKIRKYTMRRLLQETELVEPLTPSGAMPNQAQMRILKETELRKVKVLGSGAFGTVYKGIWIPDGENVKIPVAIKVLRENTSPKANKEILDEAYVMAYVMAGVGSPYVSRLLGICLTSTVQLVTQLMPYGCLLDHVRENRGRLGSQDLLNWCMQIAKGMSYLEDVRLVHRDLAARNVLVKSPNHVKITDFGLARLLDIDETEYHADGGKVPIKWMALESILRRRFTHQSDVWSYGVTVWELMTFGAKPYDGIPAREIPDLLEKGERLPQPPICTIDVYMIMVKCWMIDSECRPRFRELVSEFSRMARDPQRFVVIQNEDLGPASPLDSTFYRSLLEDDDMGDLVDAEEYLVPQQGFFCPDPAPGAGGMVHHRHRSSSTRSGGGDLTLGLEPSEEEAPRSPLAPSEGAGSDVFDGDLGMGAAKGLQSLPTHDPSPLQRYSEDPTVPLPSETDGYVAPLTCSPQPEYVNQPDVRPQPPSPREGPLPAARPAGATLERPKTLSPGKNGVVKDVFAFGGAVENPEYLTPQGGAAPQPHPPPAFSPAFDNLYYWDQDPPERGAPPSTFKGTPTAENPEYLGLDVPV

Turning to `Cc1cc(Nc2ncnn3ccc(C4CN(C(=O)/C=C/CN(C)C)C4)c23)ccc1Oc1ccn2ncnc2c1` [Example 1, (E)-1-(3-(4-((4-([1,2,4]triazolo[1,5-a]pyridin-7-yloxy)-3-methylphenyl)amino)pyrrolo[2,1-f][1,2,4]triazin-5-yl)azetidin-1-yl)-4-(dimethylamino)but-2-en-1-one], the results for the GI50 at BaF3_EGFRWT cells, on BaF3_HER2YVMA cells and on BaF3_HER2WT cells were 1500 to 5000 nM, < 200 nM and < 200 nM, respectively. Further, the IC50 (in general, the concentration that inhibits the measured activity by half) in test [1] is < 200 nM.
With `C=CC(=O)N1CC(n2cc(-c3ccn4ncnc(Nc5ccc(Oc6ccn7ncnc7c6)c(C)c5)c34)cn2)C1` [Example 2, 1-(3-(4-(4-((4-([1,2,4]triazolo[1,5-a]pyridin-7-yloxy)-3-methylphenyl)amino)pyrrolo[2,1-f][1,2,4]triazin-5-yl)-1H-pyrazol-1-yl)azetidin-1-yl)prop-2-en-1-one], the GI50 was 1500 to 5000 nM on BaF3_EGFRWT cells, < 200 nM at BaF3_HER2YVMA cells and < 200 nM on BaF3_HER2WT cells. In addition, the IC50 in test [1] is < 200 nM.
`C=CC(=O)N1CCN(c2ccn3ncnc(Nc4ccc(Oc5ccn6ncnc6c5)c(C)c4)c23)CC1` [Example 6, 1-(4-(4-((4-([1,2,4]triazolo[1,5-a]pyridin-7-yloxy)-3-methylphenyl)amino)pyrrolo[2,1-f][1,2,4]triazin-5-yl)piperazin-1-yl)prop-2-en-1-one]: the values for the GI50 at BaF3_EGFRWT cells, at BaF3_HER2YVMA cells and on BaF3_HER2WT cells were 500 to 1500 nM, < 200 nM and < 200 nM, respectively. Besides, in test [1], the IC50 was < 200 nM.
In the case of `C=CC(=O)N1CCC(c2ccn3ncnc(Nc4ccc(Oc5ccn6ncnc6c5)c(C)c4)c23)CC1` [Example 7, 1-(4-(4-((4-([1,2,4]triazolo[1,5-a]pyridin-7-yloxy)-3-methylphenyl)amino)pyrrolo[2,1-f][1,2,4]triazin-5-yl)piperidin-1-yl)prop-2-en-1-one], the values for the GI50 on BaF3_EGFRWT cells, at BaF3_HER2YVMA cells and on BaF3_HER2WT cells were 200 to 500 nM, < 200 nM and < 200 nM, respectively. The IC50 in test [1] was < 200 nM.
With `C=CC(=O)N1CCCN(c2ccn3ncnc(Nc4ccc(Oc5ccn6ncnc6c5)c(C)c4)c23)CC1` [Example 8, 1-(4-(4-((4-([1,2,4]triazolo[1,5-a]pyridin-7-yloxy)-3-methylphenyl)amino)pyrrolo[2,1-f][1,2,4]triazin-5-yl)-1,4-diazepan-1-yl)prop-2-en-1-one], the figures for the GI50 on BaF3_EGFRWT cells, on BaF3_HER2YVMA cells and at BaF3_HER2WT cells were 500 to 1500 nM, < 200 nM and < 200 nM, respectively. For the same compound, in test [1], the IC50 is < 200 nM.
`C=CC(=O)N1CC(c2ccn(-c3ccn4ncnc(Nc5ccc(Oc6ccn7ncnc7c6)c(C)c5)c34)n2)C1` [Example 10, 1-(3-(1-(4-((4-([1,2,4]triazolo[1,5-a]pyridin-7-yloxy)-3-methylphenyl)amino)pyrrolo[2,1-f][1,2,4]triazin-5-yl)-1H-pyrazol-3-yl)azetidin-1-yl)prop-2-en-1-one]: the GI50 on BaF3_EGFRWT cells fell in the range of 1500 to 5000 nM; at BaF3_HER2YVMA cells it was 500 to 1500 nM; on BaF3_HER2WT cells, 200 to 500 nM. In test [1], the IC50 was < 200 nM.
On to `C=CC(=O)N1CCCC(c2ccn3ncnc(Nc4ccc(Oc5ccn6ncnc6c5)c(C)c4)c23)C1` (stereo not shown) [Example 12, 1-(3-(4-((4-([1,2,4]triazolo[1,5-a]pyridin-7-yloxy)-3-methylphenyl)amino)pyrrolo[2,1-f][1,2,4]triazin-5-yl)piperidin-1-yl)prop-2-en-1-one], for which the GI50 is 1500 to 5000 nM at BaF3_EGFRWT cells, < 200 nM at BaF3_HER2YVMA cells and < 200 nM at BaF3_HER2WT cells. The IC50 in test [1] is < 200 nM.
`CO[C@@H]1CN(C/C=C/C(=O)N2CC(c3ccn4ncnc(Nc5ccc(Oc6ccc7c(c6)ncn7C)c(C)c5)c34)C2)C[C@H]1OC` [Example 166, (E)-4-((3R,4R)-3,4-dimethoxypyrrolidin-1-yl)-1-(3-(4-((3-methyl-4-((1-methyl-1H-benzo[d]imidazol-5-yl)oxy)phenyl)amino)pyrrolo[2,1-f][1,2,4]triazin-5-yl)azetidin-1-yl)but-2-en-1-one]: the results for the GI50 on BaF3_EGFRWT cells, on BaF3_HER2YVMA cells and at BaF3_HER2WT cells were 1500 to 5000 nM, < 200 nM and < 200 nM, respectively.
As to `CO[C@H]1CN(C/C=C/C(=O)N2CCC(c3ccn4ncnc(Nc5ccc(Oc6ccc7c(c6)ncn7C)c(C)c5)c34)CC2)C[C@H]1OC` [Example 167, (E)-4-((3R,4S)-3,4-dimethoxypyrrolidin-1-yl)-1-(4-(4-((3-methyl-4-((1-methyl-1H-benzo[d]imidazol-5-yl)oxy)phenyl)amino)pyrrolo[2,1-f][1,2,4]triazin-5-yl)piperidin-1-yl)but-2-en-1-one], the GI50 was 1500 to 5000 nM on BaF3_EGFRWT cells, < 200 nM on BaF3_HER2YVMA cells and < 200 nM on BaF3_HER2WT cells.
`CO[C@@H]1CN(C/C=C/C(=O)N2CCC(c3ccn4ncnc(Nc5ccc(Oc6ccc7c(c6)ncn7C)c(C)c5)c34)CC2)C[C@H]1OC` [Example 168, (E)-4-((3R,4R)-3,4-dimethoxypyrrolidin-1-yl)-1-(4-(4-((3-methyl-4-((1-methyl-1H-benzo[d]imidazol-5-yl)oxy)phenyl)amino)pyrrolo[2,1-f][1,2,4]triazin-5-yl)piperidin-1-yl)but-2-en-1-one]: the GI50 on BaF3_EGFRWT cells was 1500 to 5000 nM; at BaF3_HER2YVMA cells, < 200 nM; at BaF3_HER2WT cells, < 200 nM.
Consider `CO[C@H]1CN(C/C=C/C(=O)N2CCC(c3ccn4ncnc(Nc5ccc(Oc6ccn7ncnc7c6)c(C)c5)c34)CC2)C[C@H]1OC` [Example 169, (E)-1-(4-(4-((4-([1,2,4]triazolo[1,5-a]pyridin-7-yloxy)-3-methylphenyl)amino)pyrrolo[2,1-f][1,2,4]triazin-5-yl)piperidin-1-yl)-4-((3R,4S)-3,4-dimethoxypyrrolidin-1-yl)but-2-en-1-one], for which the GI50 was 1500 to 5000 nM on BaF3_EGFRWT cells, < 200 nM at BaF3_HER2YVMA cells and < 200 nM on BaF3_HER2WT cells.
Turning to `CO[C@@H]1CN(C/C=C/C(=O)N2CCC(c3ccn4ncnc(Nc5ccc(Oc6ccn7ncnc7c6)c(C)c5)c34)CC2)C[C@H]1OC` [Example 170, (E)-1-(4-(4-((4-([1,2,4]triazolo[1,5-a]pyridin-7-yloxy)-3-methylphenyl)amino)pyrrolo[2,1-f][1,2,4]triazin-5-yl)piperidin-1-yl)-4-((3R,4R)-3,4-dimethoxypyrrolidin-1-yl)but-2-en-1-one], the GI50 on BaF3_EGFRWT cells is 1500 to 5000 nM; on BaF3_HER2YVMA cells it was < 200 nM; on BaF3_HER2WT cells, < 200 nM.
`Cc1cc(Nc2ncnn3ccc(C4(F)CCN(C(=O)/C=C/CN(C)C)CC4)c23)ccc1Oc1ccn2ncnc2c1` [Example 175, (E)-1-(4-(4-((4-([1,2,4]triazolo[1,5-a]pyridin-7-yloxy)-3-methylphenyl)amino)pyrrolo[2,1-f][1,2,4]triazin-5-yl)-4-fluoropiperidin-1-yl)-4-(dimethylamino)but-2-en-1-one]: the GI50 at BaF3_EGFRWT cells, at BaF3_HER2YVMA cells and on BaF3_HER2WT cells was 1500 to 5000 nM in each case.
In the case of `Cc1cc(Nc2ncnn3ccc(C4CCN(C(=O)/C=C/CN(C)C)CC4(F)F)c23)ccc1Oc1ccn2ncnc2c1` (stereo not shown) [Example 176, (E)-1-(4-(4-((4-([1,2,4]triazolo[1,5-a]pyridin-7-yloxy)-3-methylphenyl)amino)pyrrolo[2,1-f][1,2,4]triazin-5-yl)-3,3-difluoropiperidin-1-yl)-4-(dimethylamino)but-2-en-1-one], the figures for the GI50 on BaF3_EGFRWT cells, at BaF3_HER2YVMA cells and at BaF3_HER2WT cells were 1500 to 5000 nM, < 200 nM and < 200 nM, respectively.
In the case of `CNC/C=C/C(=O)N1CCC(c2ccn3ncnc(Nc4ccc(Oc5ccn6ncnc6c5)c(C)c4)c23)CC1` [Example 177, (E)-1-(4-(4-((4-([1,2,4]triazolo[1,5-a]pyridin-7-yloxy)-3-methylphenyl)amino)pyrrolo[2,1-f][1,2,4]triazin-5-yl)piperidin-1-yl)-4-(methylamino)but-2-en-1-one], the GI50 at BaF3_EGFRWT cells is 1500 to 5000 nM; at BaF3_HER2YVMA cells, < 200 nM; on BaF3_HER2WT cells it was < 200 nM.
As for `Cc1cc(Nc2ncnn3ccc(C(=O)NCCCN(C)C)c23)ccc1N` [Example 181, 4-((4-amino-3-methylphenyl)amino)-N-(3-(dimethylamino)propyl)pyrrolo[2,1-f][1,2,4]triazine-5-carboxamide], the GI50 at BaF3_EGFRWT cells is > 5000 nM; on BaF3_HER2YVMA cells, > 5000 nM; on BaF3_HER2WT cells, 1500 to 5000 nM.
